Data on two compounds can be found in patent publication US8779002B2, “Methods for treating a variety of diseases and conditions, and compounds useful therefor” (Salk Institute for Biological Studies, priority 2007, dated 2014).

Where two headings read alike, the source gives them in different places.

For one data set, the system named is HT22 cells. Description: HT22 oxidative glutamate toxicity (oxytosis) assay. Particulars: for EC50: Mus musculus, HT-22. The class given is cell-based, mouse. How it is done:
FIG. 1D illustrates the results of an oxidative stress assay. HT22 cells were treated with 5 mM glutamate and different concentrations of two versions of curcumin derivatives. Cell viability was measured 24 hr later by the MTT assay (J. B. Davis and P. Maher, Protein kinase C activation inhibits glutamate-induced cytotoxicity in a neuronal cell line. Brain Res. 652 (1994) 169-173). Legend for FIG. 1A, FIG. 1B and FIG. 1D: x-x, Cmpd CNB-001, o-o, Cmpd J147.
Similar toxicity assays as described above are also conducted with invention compounds using HT22 cells in an assay for oxidative stress. After exposure with 1 mM, 2 mM, 2.5 mM, or 5 mM glutamate, cell viability is determined with the MTT assay.
HT22 hippocampal neurons are treated with 5 mM glutamate and increasing concentrations of invention compounds. Cell viability is measured 24 hr later by the MTT assay (Davis and Maher, Brain Res. 652:169-173 (1994)).

The next data set deals with primary cortical neurons. Description: Trophic factor withdrawal (TFW) assay. The class given is cell-based, rat. Particulars: Rattus norvegicus, Primary cortical neuron. How it is done: FIG. 1A illustrates the results of a trophic factor withdrawal assay. Primary cortical neurons are prepared from 18-day-old rat embryos, and cultured at low cell density 1×10^6/35 mm dish, in serum containing medium, with different compounds Viability is then assayed 2 days later using a fluorescent live-dead assay (Molecular Probes).
Primary cortical neurons can be prepared from 18-day-old embryos of Sprague-Dawley rats as described (Liu & Schubert, J. Neurochem., 1997, 69:2285-2293 and J. Neurochem., 1998, 71:2322-2329). Briefly, the cerebral cortex is dissected out under an anatomical microscope and is freed of meninges and blood vessels. The cortex is cut into small pieces and is then dissociated by trypsin digestion and passed through a pipette tip. Dissociated neurons are suspended in various media and plated on polylysine-coated 35 mm tissue culture dishes (e.g., 1×10^6 cells/dish). Several different culture conditions can be used as known in the art. Invention compounds can be added to cell culture dishes. Cell survival can be measured 1-2 days after compound administration.
A serum-containing medium can be used which includes a minimal essential medium (Sigma) containing 30 mM glucose, 2 mM glutamine, 1 mM pyruvate, penicillin (100 U/ml), streptomycin (100 μg/ml), and 10% fetal calf serum. At a plating density of 1×10^6 cells/dish, most neurons die after one week of culture in this medium. If plated at a density of 2×10^6 cells/dish, then most neurons survive. The cell density-dependent neuronal survival in this system is most likely dependent on the neurotrophic factors secreted by the neurons, not by the glia. The results are the same when glial proliferation is inhibited by cytosine arabinoside.
The structure-activity relationships of compounds according to the present invention can be determined by measuring trophic factor withdrawal in […] primary cortical neurons. As shown in FIG. 1A-FIG. 1D, compounds are added to low density primary cultures of E18 rat cortical neurons at the time of plating, and cell survival is determined two days later by a variety of methods.

The next data set has as its system MC-65 cells. Description: MC65 intracellular amyloid toxicity assay. The class given is cell-based. Particulars: for EC50: MC65; for Protection against intracellular protein aggregation and toxicity: MC-65 cells, tetracycline removal, MTT 5 days later. The protocol:
FIG. 4A illustrates the viability of MC-65 cells upon exposure to the indicated concentrations of compounds, and the degree to which synthesis of the C-terminal fragment of APP is induced by the removal of tetracycline. Cell death was determined 5 days later by the MTT assay and confirmed visually. The data are plotted as percent viable, relative to controls of drug plus un-induced cells.

For another data set, the system named is Amyloid. As to the kind of experiment: Extracellular amyloid toxicity (cell culture). The class given is cell-based.
In a further data set the test system is PC12 cells. As to the kind of experiment: Glucose starvation assay. The format is cell-based. Further details: key: + = positive result or enzyme activation. The note with it: Cell Culture. How it is done: FIG. 1C illustrates the results of a glucose starvation assay. PC12 cells were starved for glucose plus or minus 20 nM J147; cell viability was then determined 48 hr later using the MTT assay (T. Soucek, R. Cumming, R. Dargusch, P. Maher and D. Schubert, Neuron 39 (2003) 43-56).

In a further data set the test system is Cortical Nerve. Description: In vitro ischemia, cortical nerve. The format is cell-based. On the set-up: key: + = positive result or enzyme activation.
In another data set the test system is Retinal Ganglion Cells. Description: In vitro ischemia, retinal ganglion cells. The class given is cell-based. On the set-up: key: + = positive result or enzyme activation.
The next data set has as its system Memory. As to the kind of experiment: Memory, animal models (Table 2). On the set-up: key: + = positive result or enzyme activation. Particulars: in vivo.
In another data set the test system is CREB. Description: CREB phosphorylation. The format is cell-based, mouse. Further details: key: + = positive result or enzyme activation. The source says: CREB activation has been linked to cell survival and accordingly, is considered to be a validated therapeutic target (Vaishnov, et al, Biochem. Biophys. Res. Commun. 307:855-860 (2003)). Similar to the concept of programmed cell death which involves transcription factors pivotal in switching on the nerve cell death program is the transcriptional control of programmed cell life. For example, recent studies of the activation of the CREB transcription factor in stroke models have shown that CREB is phosphorylated (and presumably activated) in neurons that survive this insult.
CREB phosphorylation in response to oxidative stress is evaluated in the presence of invention compounds. Glutamate is added to HT22 cells in the presence or absence of Cmpd CNB-001 (at 1 μM). The ratio of phosphorylated CREB to total CREB is then measured as a function of time. Furthermore, all of the HT22 cells die in the absence of Cmpd CNB-001, and over 90% live in the presence of Cmpd CNB-001.

Data set [1] in a line: Toxicology: animal weight or overall health. The format is in vivo.
The mark [2] stands for this setting: Cell Culture (Table 2), read-out: Oxidative Glutamate Toxicity.
The mark [3] stands for this setting: Cell Culture (Table 2), read-out: Trophic Factor Withdrawal.
[4] abbreviates: Cell Culture, read-out: Amyloid Toxicity, Intracellular.

Turning to `COc1cc(/C=C/c2cc(/C=C/c3ccc(O)c(OC)c3)n(-c3ccccc3)n2)ccc1O` [CNB-001], the EC50 was 500 nM with HT22 cells (setting [2]), 500 nM in the data set with primary cortical neurons (setting [3]), 200 nM with MC-65 cells (setting [4]) and 500 nM in the data set with Amyloid. The “HT22 cells that live” value in the data set on HT22 cells (glutamate, in the presence of Cmpd CNB-001 at 1 μM) is listed as “over 90%”. The “Protection against intracellular protein aggregation and toxicity” value in the data set on MC-65 cells is given as “neuroprotective”. Besides, the “Glucose Starvation” value with PC12 cells was “+”. In addition, the “In Vitro Ischemia, Cortical Nerve” value in the data set with Cortical Nerve is “+”. The “In Vitro Ischemia, Retinal Ganglion Cells” value with Retinal Ganglion Cells is reported as “+”. In addition, in the data set with Memory, the Memory entry is “+”. Further, the “Memory, Animal” value with Memory is “+”. In addition, the CREB result in the data set with CREB is listed as “+”. Moreover, the “Toxicology-no apparent effect on animal weight or overall health” value in data set [1] (several mo. (mice)) amounted to 500 ppm food.

For the compound `COc1cccc(/C=N/N(C(=O)C(F)(F)F)c2ccc(C)cc2C)c1` [Compound J147], the EC50 is 5 nM with HT22 cells (setting [2]); around 5 nM in the data set with HT22 cells (HT22 cells, following 5 mM glutamate exposure, MTT, read-out: EC50); 6 nM in the data set on HT22 cells (Oxidative glutamate toxicity (oxytosis), read-out: HT-22 EC50); 10 nM with primary cortical neurons (setting [3]); 50 nM in the data set with primary cortical neurons (Trophic factor withdrawal assay, read-out: TFW EC50); 3 nM with MC-65 cells (setting [4]). The EC50 was determined as 10 nM with MC-65 cells (Intracellular amyloid toxicity, read-out: MC65 EC50) and 10 nM with Amyloid. Also, the “Protection against intracellular protein aggregation and toxicity” value with MC-65 cells is given as “neuroprotective”. For the same compound, the “Glucose Starvation” value in the data set with PC12 cells is listed as “+”. Also, in the data set with Cortical Nerve, the “In Vitro Ischemia, Cortical Nerve” value is “+”. Moreover, the “In Vitro Ischemia, Retinal Ganglion Cells” value with Retinal Ganglion Cells is given as “+”. For the same compound, the Memory result with Memory is on record as “+”. The “Memory, Animal” value in the data set on Memory is on record as “+”. Besides, the CREB result in the data set with CREB is “+”. The “Toxicology-no apparent effect on animal weight or overall health” value in data set [1] (gavage 10 d (mice)) is reported as 300 mg/kg.
